Results taken from US10370538B2 (priority 2015, dated 2019).
Entries after “also recorded” stand apart in the source; their conditions may differ.

Tests used:
mycobacteria = conditions: reported in the literature; cited from earlier work
M. smegmatis = conditions: 10 μM, room temperature, 1 h, washed
Description: FIGS. 5A-5C illustrate freshly cultured E. coli (TOP10), S. pneumoniae, S. aureus, S. sanguinis, C. propinquum, C. striatum and M. smegmatis were incubated with PBS, 10 μM of TG, TG-DNB1 or TG-DNB2 at room temperature for 1 h. Cells were washed stringently with PBS for 3 times then fixed in 10% formalin solution for 30 min before vizualized with a confocal microscope (63×/oil, Ex/Em-FITC).
The fold increasing (F/FPBS) was calculated by normalizing against the fluorescence intensity of PBS-treated cells. Experiments were performed twice with similar results.
Freshly cultured E. coli (TOP10), E. coli expressing TEM1-β-lactamase, S. pneumoniae, S. aureus, S. sanguinis, C. propinquum, C. striatum, and M. smegmatis were incubated with PBS, 10 μM CDG1, CDG-DNB1, or CDG-DNB2 at room temperature for 1 h. Cells were washed 3 times PBS and then fixed in 10% formalin solution for 30 min before analyzed with a confocal microscope under 63×/oil, Ex/Em-FITC.
The fluorescence intensity of PBS treated cells of each strain was arbitrarily set as 1 to show the fold increasing (F/FPBS).

BCG [1] = type: cell-based, Mycobacterium bovis; conditions: 10 μM, no washing
[2] = system: E. coli expressing TEM1-β-lactamase; type: cell-based
BCG [3] = type: cell-based, Mycobacterium bovis; conditions: 10 μM, room temperature, 1 h, washed
[4] = system: patients' clinical sputum samples; assay: staining of patients' processed sputum samples; type: cell-based; conditions: 10 μM, 1 h, room temperature
Description: FIG. 15 is a series of digital fluorescence confocal microscope images of CDG-DNB2 stained patients' processed sputum samples. Processed sputum samples were centrifuged and resuspended in 10 μM CDG-DNB2 for 1 h at room temperature. Cells were pelleted and washed stringently 3 times with PBS before fixation with 10% formalin for 30 min. Cells were further visualized using a confocal microscope at 20× or 60×/Ex 490-Em520.
Clinical study with CDG-DNB2: Probe CDG-DNB2 has been evaluated in patients' clinical sputum samples: 4 positive and 4 negative samples.

[5] = system: Mycobacterium tuberculosis H37Rv; type: cell-based
[6] = molecular target: M. smegmatis DprE1 protein (Mycolicibacterium smegmatis, UniProt A0R607); assay: fluorescence labeling of purified DprE1 protein by dye-DNB analogues in the presence of M. smegmatis lysate; type: biochemical; conditions: for covalent fluorescence labeling of DprE1 protein: 10 μM probe, in the presence of M. smegmatis lysate
Chain of M. smegmatis DprE1 protein (A0R607 whole entry): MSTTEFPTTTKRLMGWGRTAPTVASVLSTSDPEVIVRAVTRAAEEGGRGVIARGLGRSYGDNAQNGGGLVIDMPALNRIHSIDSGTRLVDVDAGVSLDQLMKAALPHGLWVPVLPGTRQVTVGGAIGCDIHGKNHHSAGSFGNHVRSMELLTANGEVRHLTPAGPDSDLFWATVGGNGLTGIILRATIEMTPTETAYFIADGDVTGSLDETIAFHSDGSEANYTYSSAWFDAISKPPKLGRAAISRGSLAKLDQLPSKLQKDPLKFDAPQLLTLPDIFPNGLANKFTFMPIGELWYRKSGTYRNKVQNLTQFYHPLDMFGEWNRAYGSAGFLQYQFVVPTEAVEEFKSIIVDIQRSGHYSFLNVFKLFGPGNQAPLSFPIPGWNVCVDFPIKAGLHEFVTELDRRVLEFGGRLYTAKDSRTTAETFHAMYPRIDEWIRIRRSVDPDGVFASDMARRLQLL

## C[C@H]1COC2(CCN(c3nc(=O)c4cc(C(F)(F)F)cc([N+](=O)[O-])c4s3)CC2)O1 [BTZ043]
mycobacteria
  antimycobacterial activity: potent antimycobacterial agents

## COc1ccc(-c2c3ccc(=O)cc-3oc3cc(OCc4ccc(OCC5=C(C(=O)O)N6C(=O)[C@@H](NC(=O)Cc7ccccc7)[C@H]6SC5)cc4)ccc23)c(C)c1 [CDG-1]
M. smegmatis
  trapping of fluorescence signal in or on M. smegmatis cells: cannot be trapped in or on the cells

## Cc1cc(OCCNC(=O)c2cc([N+](=O)[O-])cc([N+](=O)[O-])c2)ccc1-c1c2ccc(=O)cc-2oc2cc(OCc3ccc(OCC4=C(C(=O)O)N5C(=O)[C@@H](NC(=O)Cc6ccccc6)[C@H]5SC45CC5)cc3)ccc12 [CDG-DNB2]
BCG [1]; imaged every 2.5 min from 5 min
  time at which prominent fluorescence was observed: 15 min
BCG [1]; time at which imaging was stopped
  continuous enhancement of fluorescence till: 75 min
[2]
  hydrolysis of probe by TEM1 β-lactamase-transformed E. coli: can hydrolyze CDG-DNB2 and generate the uncaged fluorescent signal
  retention of fluorescence in TEM1 β-lactamase-transformed E. coli: cannot retain the fluorescence
BCG [3]
  staining of BCG (confocal): exhibited an intense (green) fluorescent signal
[4]; 4 negative samples
  staining of negative sputum samples: all the negative samples had little background fluorescence
[4]; 4 positive samples
  staining of positive sputum samples: 4 positive samples all displayed green fluorescence-stained bacteria
[5]
  fold increase of fluorescence intensity over control levels, H37Rv: about 20 fold
  staining of H37Rv (confocal): exhibited an intense (green) fluorescent signal

## COc1ccc(OCCNC(=O)c2cc([N+](=O)[O-])cc([N+](=O)[O-])c2)cc1 [DNB1, reference compound]
mycobacteria
  antimycobacterial activity: potent antimycobacterial agents
[6]; DprE1SM incubated with 50 μM DNB1 for one hour prior to addition of TG-DNB1
  DprE1 labeling by TG-DNB analogues after pre-incubation with DNB1: abolished the band

## Cc1cc(OCCn2cc(CNC(=O)c3cc([N+](=O)[O-])cc([N+](=O)[O-])c3)nn2)ccc1-c1c2ccc(=O)cc-2oc2cc(O)ccc12 [TG-DNB1]
[6]
  covalent fluorescence labeling of DprE1 protein: significantly higher labeling capability than did the two mononitro compounds; also recorded: a fluorescent band was observed

## Cc1cc(OCCNC(=O)c2cc([N+](=O)[O-])cc([N+](=O)[O-])c2)ccc1-c1c2ccc(=O)cc-2oc2cc(O)ccc12 [TG-DNB2]
[6]
  covalent fluorescence labeling of DprE1 protein: significantly higher labeling capability than did the two mononitro compounds; also recorded: a fluorescent band was observed
